Measurements as given in the NIST ThermoML archive (doi:10.1021/acs.jced.8b00153).
“And” between values parts separate entries of the source, which are not always exact repeats. Equal values may be shown once.

Details: for surface tension liquid-gas: Drop volume; for viscosity / speed of sound / mass density / vapor or sublimation pressure: Liquid; for viscosity: Capillary tube (Ostwald / Ubbelohde) method; for speed of sound: Frequency=3 MHz, Single path-length method; for mass density: Vibrating tube method; for vapor or sublimation pressure: Ebulliometric method (Recirculating still)

CCc1cccs1 [2-ethylthiophene]
Details	surface tension liquid-gas [mN/m]	vapor or sublimation pressure [kPa]
278.15 K	32.36	–
280.65 K	32.11	–
283.15 K	31.8	–
285.65 K	31.55	–
288.15 K	31.24	–
290.65 K	30.98	–
292.41 K	–	0.8
293.15 K	30.66	–
293.45 K	–	0.84
295.65 K	30.44	–
296.81 K	–	1.03
298.04 K	–	1.145
298.15 K	30.1	–
299.11 K	–	1.23
300.65 K	29.86	–
302.95 K	–	1.52
303.15 K	29.54	–
305.65 K	29.3	–
308.07 K	–	2.005
308.15 K	28.96	–
310.65 K	28.73	–
312.28 K	–	2.55
313.15 K	28.41	–

Details	mass density	speed of sound [m/s]	viscosity [mPa·s]
278.15 K, 100 kPa	1008.35 kg/m3	1373.2	0.9347
280.65 K, 100 kPa	1005.86 kg/m3	1363.4	0.905
283.15 K, 100 kPa	1003.44 kg/m3 and 1003.37 kg/m3	1354.2	0.8766
283.15 K, 2000 kPa	1004.84 kg/m3	–	–
283.15 K, 5000 kPa	1007 kg/m3	–	–
283.15 K, 7000 kPa	1008.42 kg/m3	–	–
283.15 K, 10000 kPa	1010.51 kg/m3	–	–
283.15 K, 15000 kPa	1013.9 kg/m3	–	–
283.15 K, 20000 kPa	1017.18 kg/m3	–	–
283.15 K, 25000 kPa	1020.37 kg/m3	–	–
283.15 K, 30000 kPa	1023.45 kg/m3	–	–
283.15 K, 35000 kPa	1026.45 kg/m3	–	–
283.15 K, 40000 kPa	1029.36 kg/m3	–	–
283.15 K, 45000 kPa	1032.2 kg/m3	–	–
283.15 K, 50000 kPa	1034.96 kg/m3	–	–
283.15 K, 55000 kPa	1037.65 kg/m3	–	–
283.15 K, 60000 kPa	1040.28 kg/m3	–	–
283.15 K, 65000 kPa	1042.84 kg/m3	–	–
285.65 K, 100 kPa	1000.87 kg/m3	1344.7	0.8498
288.15 K, 100 kPa	998.47 kg/m3 and 998.38 kg/m3	1334.1	0.8244
288.15 K, 2000 kPa	999.91 kg/m3	–	–
288.15 K, 5000 kPa	1002.13 kg/m3	–	–
288.15 K, 7000 kPa	1003.59 kg/m3	–	–
288.15 K, 10000 kPa	1005.73 kg/m3	–	–
288.15 K, 15000 kPa	1009.2 kg/m3	–	–
288.15 K, 20000 kPa	1012.57 kg/m3	–	–
288.15 K, 25000 kPa	1015.82 kg/m3	–	–
288.15 K, 30000 kPa	1018.97 kg/m3	–	–
288.15 K, 35000 kPa	1022.04 kg/m3	–	–
288.15 K, 40000 kPa	1025.03 kg/m3	–	–
288.15 K, 45000 kPa	1027.9 kg/m3	–	–
288.15 K, 50000 kPa	1030.72 kg/m3	–	–
288.15 K, 55000 kPa	1033.47 kg/m3	–	–
288.15 K, 60000 kPa	1036.14 kg/m3	–	–
288.15 K, 65000 kPa	1038.73 kg/m3	–	–
290.65 K, 100 kPa	995.88 kg/m3	1325	0.8003
293.15 K, 100 kPa	993.45 kg/m3 and 993.38 kg/m3	1315.3	0.7772
293.15 K, 2000 kPa	994.92 kg/m3	–	–
293.15 K, 5000 kPa	997.2 kg/m3	–	–
293.15 K, 7000 kPa	998.7 kg/m3	–	–
293.15 K, 10000 kPa	1000.9 kg/m3	–	–
293.15 K, 15000 kPa	1004.46 kg/m3	–	–
293.15 K, 20000 kPa	1007.92 kg/m3	–	–
293.15 K, 25000 kPa	1011.25 kg/m3	–	–
293.15 K, 30000 kPa	1014.49 kg/m3	–	–
293.15 K, 35000 kPa	1017.62 kg/m3	–	–
293.15 K, 40000 kPa	1020.67 kg/m3	–	–
293.15 K, 45000 kPa	1023.61 kg/m3	–	–
293.15 K, 50000 kPa	1026.49 kg/m3	–	–
293.15 K, 55000 kPa	1029.29 kg/m3	–	–
293.15 K, 60000 kPa	1032.01 kg/m3	–	–
293.15 K, 65000 kPa	1034.65 kg/m3	–	–
295.65 K, 100 kPa	990.88 kg/m3	1305.8	0.7554
298.15 K, 100 kPa	988.39 kg/m3 and 988.37 kg/m3	1295.8	0.7345
298.15 K, 2000 kPa	989.91 kg/m3	–	–
298.15 K, 5000 kPa	992.26 kg/m3	–	–
298.15 K, 7000 kPa	993.8 kg/m3	–	–
298.15 K, 10000 kPa	996.05 kg/m3	–	–
298.15 K, 15000 kPa	999.7 kg/m3	–	–
298.15 K, 20000 kPa	1003.24 kg/m3	–	–
298.15 K, 25000 kPa	1006.67 kg/m3	–	–
298.15 K, 30000 kPa	1009.97 kg/m3	–	–
298.15 K, 35000 kPa	1013.18 kg/m3	–	–
298.15 K, 40000 kPa	1016.3 kg/m3	–	–
298.15 K, 45000 kPa	1019.31 kg/m3	–	–
298.15 K, 50000 kPa	1022.24 kg/m3	–	–
298.15 K, 55000 kPa	1025.1 kg/m3	–	–
298.15 K, 60000 kPa	1027.87 kg/m3	–	–
298.15 K, 65000 kPa	1030.59 kg/m3	–	–
300.65 K, 100 kPa	985.87 kg/m3	1285.4	0.7148
303.15 K, 100 kPa	983.42 kg/m3 and 983.36 kg/m3	1276.5	0.696
303.15 K, 2000 kPa	984.97 kg/m3	–	–
303.15 K, 5000 kPa	987.39 kg/m3	–	–
303.15 K, 7000 kPa	988.98 kg/m3	–	–
303.15 K, 10000 kPa	991.3 kg/m3	–	–
303.15 K, 15000 kPa	995.04 kg/m3	–	–
303.15 K, 20000 kPa	998.67 kg/m3	–	–
303.15 K, 25000 kPa	1002.17 kg/m3	–	–
303.15 K, 30000 kPa	1005.54 kg/m3	–	–
303.15 K, 35000 kPa	1008.81 kg/m3	–	–
303.15 K, 40000 kPa	1012 kg/m3	–	–
303.15 K, 45000 kPa	1015.07 kg/m3	–	–
303.15 K, 50000 kPa	1018.07 kg/m3	–	–
303.15 K, 55000 kPa	1020.99 kg/m3	–	–
303.15 K, 60000 kPa	1023.81 kg/m3	–	–
303.15 K, 65000 kPa	1026.56 kg/m3	–	–
305.65 K, 100 kPa	980.85 kg/m3	1266.7	0.678
308.15 K, 100 kPa	978.38 kg/m3 and 978.33 kg/m3	1256.8	0.6606
308.15 K, 2000 kPa	979.99 kg/m3	–	–
308.15 K, 5000 kPa	982.48 kg/m3	–	–
308.15 K, 7000 kPa	984.11 kg/m3	–	–
308.15 K, 10000 kPa	986.49 kg/m3	–	–
308.15 K, 15000 kPa	990.33 kg/m3	–	–
308.15 K, 20000 kPa	994.05 kg/m3	–	–
308.15 K, 25000 kPa	997.63 kg/m3	–	–
308.15 K, 30000 kPa	1001.09 kg/m3	–	–
308.15 K, 35000 kPa	1004.45 kg/m3	–	–
308.15 K, 40000 kPa	1007.68 kg/m3	–	–
308.15 K, 45000 kPa	1010.84 kg/m3	–	–
308.15 K, 50000 kPa	1013.88 kg/m3	–	–
308.15 K, 55000 kPa	1016.86 kg/m3	–	–
308.15 K, 60000 kPa	1019.74 kg/m3	–	–
308.15 K, 65000 kPa	1022.56 kg/m3	–	–
310.65 K, 100 kPa	975.82 kg/m3	1246.5	0.6442
313.15 K, 100 kPa	–	–	0.6282
